Assay results as given in patent US10399972B2, “Tricyclic compounds as inhibitors of mutant IDH enzymes” (Merck Sharp & Dohme Corp., priority 2015, dated 2019).

Molecular target: R132H mutant IDH1 enzyme (Homo sapiens (Human), UniProt O75874, R132H)
Assay: R132H IDH1 Enzymatic Assay
Assay type: biochemical
Conditions: 1.5 nM final, 30 min preincubation, 60 min reaction, Kinase-GLO luminescence

Sequence of R132H mutant IDH1 enzyme (O75874 whole entry R132H): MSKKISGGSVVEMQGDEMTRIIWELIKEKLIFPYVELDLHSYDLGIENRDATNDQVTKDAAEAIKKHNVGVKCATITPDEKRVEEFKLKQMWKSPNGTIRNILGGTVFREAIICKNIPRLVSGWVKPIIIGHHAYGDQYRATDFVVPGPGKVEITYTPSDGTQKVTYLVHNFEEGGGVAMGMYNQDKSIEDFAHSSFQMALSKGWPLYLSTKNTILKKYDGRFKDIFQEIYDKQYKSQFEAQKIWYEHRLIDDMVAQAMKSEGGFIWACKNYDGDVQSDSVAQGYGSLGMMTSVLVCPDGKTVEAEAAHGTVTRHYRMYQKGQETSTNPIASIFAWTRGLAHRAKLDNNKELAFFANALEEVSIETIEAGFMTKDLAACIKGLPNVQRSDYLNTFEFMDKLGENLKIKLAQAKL

Row | IC50 [nM] | SMILES
1 | 83.4 | O=C(C1CCN(CC(F)(F)F)CC1)N1Cc2cc(F)cnc2Nc2ccc(N3C[C@H]4COC[C@@H](C3)O4)cc21 [Example 15, (8-((1R,5S)-3,9-dioxa-7-azabicyclo[3.3.1]nonan-7-yl)-3-fluoro-5,11-dihydro-6H-benzo[b]pyrido[2,3-e][1,4]diazepin-6-yl)(1-(2,2,2-trifluoroethyl)piperidin-4-yl)methanone]
2 | 36.9 | CC(C)O[C@H]1CC[C@H](C(=O)N2Cc3cccnc3Nc3cc(F)c(C4COCCO4)cc32)OC1 (stereo partly drawn) [Example 37, (8-(1,4-dioxan-2-yl)-9-fluoro-5,11-dihydro-6H-benzo[b]pyrido[2,3-e][1,4]diazepin-6-yl)((2R,5S)-5-isopropoxytetrahydro-2H-pyran-2-yl)methanone]
3 | 106 | CC(C)OC1CCC(C(=O)N2c3cc(Cl)ccc3Nc3ncccc3C2C)CC1 (stereo not drawn) [Example 65, (8-Chloro-5-methyl-5,11-dihydro-6H-benzo[b]pyrido[2,3-e][1,4]diazepin-6-yl)(trans-4-isopropoxycyclohexyl)methanone]
4 | 35.5 | CC(C)O[C@H]1CC[C@H](C(=O)N2Cc3cc(F)cnc3Nc3ccc(N4CC5CCC4CO5)cc32)CC1 (single isomer, unassigned) [Example 13, [3-fluoro-8-(2-oxa-5-azabicyclo[2.2.2]oct-5-yl)-5,11-dihydro-6H-pyrido[2,3-b][1,5]benzodiazepin-6-yl][trans-4-(propan-2-yloxy)cyclohexyl]methanone]
